What all share (details): Compound concentration 10 µM
In test [1] the target is T1, Alpha-1A adrenergic receptor (Homo sapiens) (UniProt P35348).
T1 sequence (whole entry): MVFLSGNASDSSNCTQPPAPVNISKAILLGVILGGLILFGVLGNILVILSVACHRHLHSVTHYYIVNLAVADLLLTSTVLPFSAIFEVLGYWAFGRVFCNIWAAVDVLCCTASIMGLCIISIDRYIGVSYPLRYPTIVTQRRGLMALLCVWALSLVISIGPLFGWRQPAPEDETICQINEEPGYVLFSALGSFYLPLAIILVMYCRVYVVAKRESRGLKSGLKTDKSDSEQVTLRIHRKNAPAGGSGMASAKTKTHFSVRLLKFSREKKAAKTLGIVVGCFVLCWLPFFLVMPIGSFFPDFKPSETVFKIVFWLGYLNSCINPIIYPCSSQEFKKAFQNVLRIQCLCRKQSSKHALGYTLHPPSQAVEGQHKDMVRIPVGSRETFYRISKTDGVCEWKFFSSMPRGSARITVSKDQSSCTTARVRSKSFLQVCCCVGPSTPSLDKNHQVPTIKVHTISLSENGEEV

Test [2] has as its target T2, Alpha-1D adrenergic receptor (Homo sapiens) (UniProt P25100).
T2 sequence (whole entry): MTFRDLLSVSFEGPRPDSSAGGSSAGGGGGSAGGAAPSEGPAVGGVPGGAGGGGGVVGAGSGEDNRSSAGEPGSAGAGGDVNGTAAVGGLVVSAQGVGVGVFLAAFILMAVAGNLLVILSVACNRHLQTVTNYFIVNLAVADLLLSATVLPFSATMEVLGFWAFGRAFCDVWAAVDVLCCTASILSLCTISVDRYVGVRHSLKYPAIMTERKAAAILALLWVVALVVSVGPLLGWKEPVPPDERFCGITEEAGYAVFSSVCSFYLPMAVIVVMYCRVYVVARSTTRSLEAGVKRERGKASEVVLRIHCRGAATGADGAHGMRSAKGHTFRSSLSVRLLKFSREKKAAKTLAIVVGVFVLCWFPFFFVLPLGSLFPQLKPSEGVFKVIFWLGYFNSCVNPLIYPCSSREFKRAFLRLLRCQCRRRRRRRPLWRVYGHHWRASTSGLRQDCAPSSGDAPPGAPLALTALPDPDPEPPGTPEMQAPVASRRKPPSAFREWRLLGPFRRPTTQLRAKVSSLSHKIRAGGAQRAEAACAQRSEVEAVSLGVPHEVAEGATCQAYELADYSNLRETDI

The target in test [3] is Beta-2 adrenergic receptor (Homo sapiens) (UniProt P07550).
Sequence of Beta-2 adrenergic receptor (Homo sapiens) (P07550 whole entry, looked up): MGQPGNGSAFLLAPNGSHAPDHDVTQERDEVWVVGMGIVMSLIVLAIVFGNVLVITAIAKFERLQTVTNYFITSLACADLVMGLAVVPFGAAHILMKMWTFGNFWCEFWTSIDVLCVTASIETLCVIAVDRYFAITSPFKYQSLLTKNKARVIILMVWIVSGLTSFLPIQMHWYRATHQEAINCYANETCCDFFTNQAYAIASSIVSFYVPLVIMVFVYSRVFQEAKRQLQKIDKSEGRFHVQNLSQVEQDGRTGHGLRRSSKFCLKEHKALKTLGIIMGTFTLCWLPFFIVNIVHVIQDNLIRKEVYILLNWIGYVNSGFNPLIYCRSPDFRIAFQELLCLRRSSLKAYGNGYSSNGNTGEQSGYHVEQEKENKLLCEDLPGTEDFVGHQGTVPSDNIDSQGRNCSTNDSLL
Test [4] deals with T3, Muscarinic acetylcholine receptor M1 (Homo sapiens) (UniProt P11229).
T3 sequence (whole entry): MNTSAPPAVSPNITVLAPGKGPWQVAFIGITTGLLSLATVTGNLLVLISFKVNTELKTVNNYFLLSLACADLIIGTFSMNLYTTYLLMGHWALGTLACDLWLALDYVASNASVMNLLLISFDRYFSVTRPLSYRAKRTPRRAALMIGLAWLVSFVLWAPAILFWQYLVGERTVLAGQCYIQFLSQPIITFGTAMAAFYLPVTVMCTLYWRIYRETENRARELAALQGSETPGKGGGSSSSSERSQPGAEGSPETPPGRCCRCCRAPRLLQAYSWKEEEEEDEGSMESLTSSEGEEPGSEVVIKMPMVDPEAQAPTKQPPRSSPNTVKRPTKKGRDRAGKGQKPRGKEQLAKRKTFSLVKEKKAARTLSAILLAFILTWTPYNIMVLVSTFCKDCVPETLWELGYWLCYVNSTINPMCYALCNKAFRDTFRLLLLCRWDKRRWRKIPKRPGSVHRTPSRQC

Test [5] has as its target Muscarinic acetylcholine receptor M3 (Homo sapiens) (UniProt P20309).
The target of test [6] is D(2) dopamine receptor (Homo sapiens) (UniProt P14416).
Sequence of D(2) dopamine receptor (Homo sapiens) (P14416 whole entry): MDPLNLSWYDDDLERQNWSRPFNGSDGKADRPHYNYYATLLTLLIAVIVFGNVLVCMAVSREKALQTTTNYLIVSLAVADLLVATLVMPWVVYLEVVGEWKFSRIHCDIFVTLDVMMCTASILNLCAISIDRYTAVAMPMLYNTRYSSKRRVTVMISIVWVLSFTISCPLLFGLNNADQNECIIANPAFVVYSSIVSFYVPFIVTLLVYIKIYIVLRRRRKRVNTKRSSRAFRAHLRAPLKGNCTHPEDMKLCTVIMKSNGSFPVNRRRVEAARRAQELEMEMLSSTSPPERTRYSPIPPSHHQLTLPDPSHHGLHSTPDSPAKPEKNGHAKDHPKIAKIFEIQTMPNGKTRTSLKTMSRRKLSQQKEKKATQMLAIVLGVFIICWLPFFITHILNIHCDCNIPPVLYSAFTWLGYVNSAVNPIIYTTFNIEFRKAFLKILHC
The target in test [7] is D(3) dopamine receptor (Homo sapiens) (UniProt P35462).
Sequence of D(3) dopamine receptor (Homo sapiens) (P35462 whole entry): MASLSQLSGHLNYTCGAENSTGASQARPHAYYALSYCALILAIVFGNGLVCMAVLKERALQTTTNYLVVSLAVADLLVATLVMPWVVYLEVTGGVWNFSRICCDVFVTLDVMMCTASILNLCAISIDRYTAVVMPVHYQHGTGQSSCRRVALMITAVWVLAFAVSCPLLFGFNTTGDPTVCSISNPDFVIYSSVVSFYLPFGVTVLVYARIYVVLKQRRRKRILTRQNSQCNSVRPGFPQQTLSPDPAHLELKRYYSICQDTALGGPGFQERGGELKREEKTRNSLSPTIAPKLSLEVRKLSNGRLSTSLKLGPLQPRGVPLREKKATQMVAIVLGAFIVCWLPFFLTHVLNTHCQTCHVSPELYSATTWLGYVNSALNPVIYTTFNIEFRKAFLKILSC
Test [8] concerns the target D(1B) dopamine receptor (Homo sapiens) (UniProt P21918).
Test [9] deals with Histamine H1 receptor (Homo sapiens) (UniProt P35367).
Test [10] concerns the target Histamine H4 receptor (Homo sapiens) (UniProt Q9H3N8).
For test [11], the target named is 5-hydroxytryptamine receptor 1B (Homo sapiens) (UniProt P28222).
Sequence of 5-hydroxytryptamine receptor 1B (Homo sapiens) (P28222 whole entry): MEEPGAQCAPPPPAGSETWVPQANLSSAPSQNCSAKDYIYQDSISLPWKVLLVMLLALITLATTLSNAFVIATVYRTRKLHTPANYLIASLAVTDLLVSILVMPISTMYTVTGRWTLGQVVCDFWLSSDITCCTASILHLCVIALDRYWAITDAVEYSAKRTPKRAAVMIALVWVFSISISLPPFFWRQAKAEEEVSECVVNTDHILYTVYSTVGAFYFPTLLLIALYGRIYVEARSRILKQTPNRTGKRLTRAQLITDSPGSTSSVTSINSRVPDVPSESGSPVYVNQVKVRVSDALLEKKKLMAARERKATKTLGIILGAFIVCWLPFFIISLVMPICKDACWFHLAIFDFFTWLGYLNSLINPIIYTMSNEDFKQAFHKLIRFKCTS
The target of test [12] is 5-hydroxytryptamine receptor 1D (Homo sapiens) (UniProt P28221).
In test [13] the target is 5-hydroxytryptamine receptor 2A (Homo sapiens) (UniProt P28223).
Sequence of 5-hydroxytryptamine receptor 2A (Homo sapiens) (P28223 whole entry): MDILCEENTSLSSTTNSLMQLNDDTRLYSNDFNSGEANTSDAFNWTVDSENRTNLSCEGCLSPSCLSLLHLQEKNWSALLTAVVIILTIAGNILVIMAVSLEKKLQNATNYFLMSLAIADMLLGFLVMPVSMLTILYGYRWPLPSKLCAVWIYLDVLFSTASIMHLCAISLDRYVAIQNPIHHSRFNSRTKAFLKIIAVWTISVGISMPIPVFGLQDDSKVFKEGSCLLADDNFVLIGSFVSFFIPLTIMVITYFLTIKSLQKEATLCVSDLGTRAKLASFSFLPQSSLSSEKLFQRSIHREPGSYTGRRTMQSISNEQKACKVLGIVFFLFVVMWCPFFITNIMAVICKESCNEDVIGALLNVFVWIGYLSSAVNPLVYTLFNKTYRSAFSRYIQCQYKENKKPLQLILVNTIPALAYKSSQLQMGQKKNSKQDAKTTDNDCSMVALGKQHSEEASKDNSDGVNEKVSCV
Test [14] deals with 5-hydroxytryptamine receptor 2B (Homo sapiens) (UniProt P41595).
Sequence of 5-hydroxytryptamine receptor 2B (Homo sapiens) (P41595 whole entry): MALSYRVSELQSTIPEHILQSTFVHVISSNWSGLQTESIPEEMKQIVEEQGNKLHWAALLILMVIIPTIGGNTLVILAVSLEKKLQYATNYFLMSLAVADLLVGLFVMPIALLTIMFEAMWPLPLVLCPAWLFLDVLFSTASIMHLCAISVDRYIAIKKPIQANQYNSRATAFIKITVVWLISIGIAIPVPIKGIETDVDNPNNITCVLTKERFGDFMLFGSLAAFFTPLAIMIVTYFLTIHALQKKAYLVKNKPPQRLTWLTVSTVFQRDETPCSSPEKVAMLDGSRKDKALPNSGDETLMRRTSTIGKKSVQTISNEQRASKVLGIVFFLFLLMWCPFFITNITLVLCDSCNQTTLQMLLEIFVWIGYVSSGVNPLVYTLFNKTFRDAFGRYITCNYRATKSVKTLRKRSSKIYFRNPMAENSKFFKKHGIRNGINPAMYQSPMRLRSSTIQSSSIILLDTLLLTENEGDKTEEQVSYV
Test [15] deals with T4, 5-hydroxytryptamine receptor 3A (Homo sapiens) (UniProt P46098).
T4 sequence (whole entry): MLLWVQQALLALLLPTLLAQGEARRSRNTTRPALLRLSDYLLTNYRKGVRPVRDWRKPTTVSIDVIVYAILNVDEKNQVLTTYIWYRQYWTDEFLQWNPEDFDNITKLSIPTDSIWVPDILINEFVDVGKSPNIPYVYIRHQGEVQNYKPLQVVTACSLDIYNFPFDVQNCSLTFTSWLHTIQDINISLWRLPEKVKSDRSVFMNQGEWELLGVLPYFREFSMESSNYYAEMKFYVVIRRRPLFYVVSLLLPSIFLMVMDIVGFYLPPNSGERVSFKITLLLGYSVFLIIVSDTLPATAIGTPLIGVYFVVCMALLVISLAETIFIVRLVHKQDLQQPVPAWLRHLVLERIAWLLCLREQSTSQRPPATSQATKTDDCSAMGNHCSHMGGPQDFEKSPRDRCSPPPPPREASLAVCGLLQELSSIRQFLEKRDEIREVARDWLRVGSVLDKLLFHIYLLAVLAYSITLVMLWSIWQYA

In test [16] the target is 5-hydroxytryptamine receptor 7 (Homo sapiens) (UniProt P34969).
Sequence of 5-hydroxytryptamine receptor 7 (Homo sapiens) (P34969 whole entry): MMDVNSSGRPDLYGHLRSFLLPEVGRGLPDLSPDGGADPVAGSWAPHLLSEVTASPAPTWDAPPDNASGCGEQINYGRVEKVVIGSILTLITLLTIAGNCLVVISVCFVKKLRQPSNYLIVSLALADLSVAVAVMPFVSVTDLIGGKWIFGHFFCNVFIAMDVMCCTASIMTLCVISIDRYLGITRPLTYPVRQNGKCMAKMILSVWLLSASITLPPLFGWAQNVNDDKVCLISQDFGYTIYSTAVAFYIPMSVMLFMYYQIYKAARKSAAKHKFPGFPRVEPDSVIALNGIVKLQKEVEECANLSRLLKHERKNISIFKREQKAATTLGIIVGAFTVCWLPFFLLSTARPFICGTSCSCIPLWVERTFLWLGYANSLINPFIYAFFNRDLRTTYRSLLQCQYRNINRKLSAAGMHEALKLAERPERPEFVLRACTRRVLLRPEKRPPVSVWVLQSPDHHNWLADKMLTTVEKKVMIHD
Test [17] addresses Delta-type opioid receptor (Homo sapiens) (UniProt P41143).
For test [18], the target named is Mu-type opioid receptor (Homo sapiens) (UniProt P35372).
Test [19] addresses Sodium-dependent dopamine transporter (Homo sapiens) (UniProt Q01959).
In test [20] the target is Sigma intracellular receptor 2 (Homo sapiens) (UniProt Q5BJF2).

As usually defined, the inhibition is the relative decrease from the control value, in per cent.

Sequence of Sodium-dependent dopamine transporter (Homo sapiens) (Q01959 whole entry): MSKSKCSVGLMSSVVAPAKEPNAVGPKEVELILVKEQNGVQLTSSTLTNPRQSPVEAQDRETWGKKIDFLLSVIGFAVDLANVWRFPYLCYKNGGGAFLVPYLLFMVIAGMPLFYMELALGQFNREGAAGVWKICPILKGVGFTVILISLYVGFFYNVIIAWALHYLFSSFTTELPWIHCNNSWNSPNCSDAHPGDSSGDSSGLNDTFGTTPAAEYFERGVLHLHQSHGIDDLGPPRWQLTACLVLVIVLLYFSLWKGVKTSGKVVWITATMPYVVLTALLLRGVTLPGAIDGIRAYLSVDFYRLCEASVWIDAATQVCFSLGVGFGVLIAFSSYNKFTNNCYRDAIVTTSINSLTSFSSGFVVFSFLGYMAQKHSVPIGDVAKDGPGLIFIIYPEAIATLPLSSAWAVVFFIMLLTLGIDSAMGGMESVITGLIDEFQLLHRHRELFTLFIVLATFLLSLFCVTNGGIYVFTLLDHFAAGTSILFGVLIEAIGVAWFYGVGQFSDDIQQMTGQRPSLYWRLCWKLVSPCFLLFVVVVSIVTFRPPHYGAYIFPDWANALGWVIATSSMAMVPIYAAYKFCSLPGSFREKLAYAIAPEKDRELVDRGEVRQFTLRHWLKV
Sequence of Histamine H4 receptor (Homo sapiens) (Q9H3N8 whole entry): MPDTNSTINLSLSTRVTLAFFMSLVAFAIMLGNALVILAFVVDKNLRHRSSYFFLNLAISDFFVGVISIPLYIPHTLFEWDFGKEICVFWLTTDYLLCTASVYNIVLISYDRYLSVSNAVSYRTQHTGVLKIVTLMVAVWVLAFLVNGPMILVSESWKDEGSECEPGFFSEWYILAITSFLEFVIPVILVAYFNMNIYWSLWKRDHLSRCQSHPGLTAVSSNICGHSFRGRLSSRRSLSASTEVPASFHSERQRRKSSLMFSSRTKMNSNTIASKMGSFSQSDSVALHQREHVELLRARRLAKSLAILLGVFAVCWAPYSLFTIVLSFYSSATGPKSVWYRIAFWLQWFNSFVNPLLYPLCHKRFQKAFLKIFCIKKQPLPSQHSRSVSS
Sequence of D(1B) dopamine receptor (Homo sapiens) (P21918 whole entry): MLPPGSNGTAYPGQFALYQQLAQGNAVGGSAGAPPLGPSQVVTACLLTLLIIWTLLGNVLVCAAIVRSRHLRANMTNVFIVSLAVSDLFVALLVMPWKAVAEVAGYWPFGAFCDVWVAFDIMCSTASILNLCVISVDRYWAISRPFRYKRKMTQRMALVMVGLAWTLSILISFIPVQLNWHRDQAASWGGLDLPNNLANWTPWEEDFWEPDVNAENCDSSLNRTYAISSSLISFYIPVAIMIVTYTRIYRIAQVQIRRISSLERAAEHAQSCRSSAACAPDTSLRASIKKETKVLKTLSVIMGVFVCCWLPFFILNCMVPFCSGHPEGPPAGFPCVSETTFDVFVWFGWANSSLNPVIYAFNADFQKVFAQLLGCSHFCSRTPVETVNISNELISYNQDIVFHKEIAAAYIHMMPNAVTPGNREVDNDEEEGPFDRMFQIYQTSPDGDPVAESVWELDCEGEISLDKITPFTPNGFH
Sequence of Delta-type opioid receptor (Homo sapiens) (P41143 whole entry): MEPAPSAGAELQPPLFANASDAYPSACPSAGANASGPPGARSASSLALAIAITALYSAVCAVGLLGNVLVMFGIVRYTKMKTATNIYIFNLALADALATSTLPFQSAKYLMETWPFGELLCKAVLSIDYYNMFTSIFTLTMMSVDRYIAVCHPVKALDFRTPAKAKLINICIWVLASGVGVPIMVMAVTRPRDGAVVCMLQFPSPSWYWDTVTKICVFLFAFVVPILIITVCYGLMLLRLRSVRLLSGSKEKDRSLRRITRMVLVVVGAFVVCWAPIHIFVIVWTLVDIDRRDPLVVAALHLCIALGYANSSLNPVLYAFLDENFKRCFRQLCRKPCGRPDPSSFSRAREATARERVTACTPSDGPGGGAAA

With `COc1ccc(NC(=O)c2ccc(-c3ccc(-c4noc(C)n4)cc3C)cc2)cc1OCCN(C)C`, the inhibition in test [1] is 17.3%; in test [2], 38%; in [3] it was 13.1%; in test [4], 50.7%; in [5], 37.2%; in test [6], 34.6%. Besides, the inhibition in [7] was 33.1%; in test [8] it was 48.4%; in test [9], 22.1%; in test [10], 49%; in test [11] it was 101%; in test [12] it was 101%. Moreover, the inhibition in test [13] is 95.4%; in test [14], 90.6%; in [15] it was 5.18%; in test [16], 78.8%; in test [17] it was 0.83%; in [18], 5.21%. The inhibition in [19] was 86.1%; in [20], 84.2%.

`O=c1ccc2ccc(OCCCCN3CCN(c4cccc5sccc45)CC3)cc2[nH]1`: the inhibition in test [1] was 100%; in test [2] it was 92.5%; in [3], 78.8%; in [4], 30.3%; in test [5], 21.4%; in [6], 104%. Besides, the inhibition was 100% in test [7]; 88.1% in test [8]; 100% in [9]; 8% in [10]; 99% in test [11]; 104% in test [12]. The inhibition was 97.1% in [13]; 96% in test [14]; 81.9% in test [15]; 101% in test [16]; -1.82% in test [17]; 26.8% in test [18]. For the same compound, the inhibition is 88.2% in test [19] and 95.6% in test [20].

`CN1CCN(c2ccc(Nc3c4ccccc4nc4ccccc34)cc2)CC1`: the inhibition in test [1] was 50.9%; in test [2], 59.2%; in test [3], 81.7%; in test [4] it was 51.2%; in test [5] it was 43.4%; in test [6] it was -0.18%. The inhibition in [7] is -2.42%; in [8], 14.1%; in test [9], 54.4%; in [10], 15.5%; in test [11], 30.3%; in test [12] it was 54.3%. The inhibition in test [13] was 5.02%; in test [14], 36.1%; in [15], 32%; in test [16], 84.4%; in test [17] it was 5.07%; in test [18] it was 12.4%. The inhibition in [19] was 62.7%; in [20], 70.8%.

With `CCc1cc2c(cc1CC)CC(NC[C@H](O)c1ccc(O)c3[nH]c(=O)ccc13)C2`, the inhibition in test [1] was 84.1%; in test [2], 75.3%; in test [3], 94.3%; in test [4] it was -6.02%; in test [5], 18.1%; in test [6] it was -7.35%. For the same compound, the inhibition is 58.8% in test [7]; 38.5% in test [8]; 34.9% in [9]; 4.91% in test [10]; 34.4% in [11]; 118% in test [12]. The inhibition in test [13] is 61.1%; in [14], 92.6%; in test [15], -4.69%; in [16], -0.79%; in test [17], 1.1%; in test [18], 21%. The inhibition was 83.1% in [19] and 96.5% in [20].
